Test results published in patent publication EP2604265A1, “P2x7 antagonists as frontline or adjunctive treatment against status epilepticus” (Royal College of Surgeons in Ireland (RCSI), priority 2011, dated 2013).

What was measured:
P2Y receptors = conditions: selectivity of BBG; cited from earlier work
Adult male C57BL/6 mice [1] = assay: Histopathology of ipsilateral hippocampal CA3 after SE (FJB and NeuN counts); assay type: in vivo; conditions: 24 h after SE, vs vehicle; for Counts of surviving CA3 neurons (NeuN) / FJB-positive cells within the CA3 subfield (neuronal death): drug given prior to SE
Protocol: (§1) Adult male C57BL/6 mice (20-25 g) were obtained from Harlan UK (Blackthorn, UK). Mice were first anesthetized using isoflurane (3-5%) and maintained normothermic by means of a feedback-controlled heat blanket (Harvard Apparatus Ltd, Kent, UK). Mice were next placed in a stereotaxic frame and three partial craniectomies performed to affix cortical skull-mounted EEG electrodes (Bilaney Consultants Ltd, Sevenoaks, UK). EEG was recorded using a Grass Comet XL digital EEG (Medivent Ltd, Lucan, Ireland). A guide cannula was affixed (coordinates from Bregma: AP = 0.94; L = 2.85 mm) and the assembly fixed in place with dental cement. Anesthesia was then discontinued and freely moving mice were placed inside a clear perspex recording chamber. EEG recordings were commenced and after establishing baseline EEG for a few minutes, an injection cannula was lowered through the guide cannula for injection of kainic acid (KA) (Ocean Produce International, Nova Scotia, Canada) into the basolateral amygdala nucleus (0.3 µg in 0.2 µl phosphate-buffered saline). Non-seizure control mice underwent the same surgical procedure but received 0.2 µl intra-amygdala vehicle. Mice were killed at different time-points (1, 4, 8 or 24 h) later and perfused with saline to remove intravascular blood components. Brains were either flash-frozen whole in 2-methylbutane at 30°C or perfused with 4% PFA for histopathology, or dissected on ice to obtain whole hippocampus or microdissected to obtain the different hippocampal subfields (CA1, DG and CA3).
Flash-frozen brains in 2-methylbutane were sectioned at -20°C on a Leica cryostat and 12 µm sections collected at the level of dorsal hippocampus (-1.8 mm and - 2.9 mm from Bregma according to a mouse stereotaxic atlas (Paxinos and Franklin, 2001). Neuronal death was assessed using Fluoro-Jade B (FJB) staining, as previously described (Engel et al., 2010; Murphy et al., 2010). Briefly, sections were air-dried and post-fixed in formalin followed by hydrating through graded alcohols. Sections were then rinsed in distilled water and transferred to 0.006% potassium permanganate solution for 15 min. Sections were rinsed again and transferred to a 0.001% FJB solution according to manufacturer's recommendations (Chemicon Europe Ltd, Chandlers Ford, UK). After staining, sections were mounted in DPX (Sigma-Aldrich). For NeuN immunohistochemistry, sections were fixed and permeabilized, blocked in goat serum and incubated overnight with anti-NeuN antibodies (Millipore Ireland B.V., Tullagreen, Ireland) followed by incubation with goat anti-rabbit IgG antibodies coupled to AlexaFluor 568 (BioSciences Limited, Dun Laoghaire, Ireland). Sections were examined using a Nikon 2000s epifluorescence microscope under Ex/Em wavelengths of 472/520 nm (green) and 540 to 580/600 to 660 nm (red) and images captured using a Hamamatsu Orca 285 camera. Cell counts were the average of two adjacent sections for the CA3 subfield under 40x lens magnification by an observer blinded to treatment.

Adult male C57BL/6 mice [2] = assay: Intra-amygdala KA-induced SE in mice, EEG, drug i.c.v. immediately prior to KA; assay type: in vivo; conditions: i.c.v. co-injection immediately prior to intra-amygdala KA; vs vehicle (antibody vs control IgG); lorazepam at 40 min
Protocol: as §1
Digitized EEG recordings were analyzed off-line using manual assessment and automated software. […] The duration of high-frequency (>5 Hz) high-amplitude (>2× baseline) polyspike discharges of ≥5 s duration (HAHFDs) was counted by a reviewer blind to treatment. Further EEG analysis was performed by uploading EEG into Labchart7 software (ADInstruments) to calculate the power spectral density (total power, a measure of the input signal's power (amplitude) over frequency) EEG spectrogram (spectral power against frequency and time).
All the following drugs were purchased from Sigma-Aldrich Ireland (Arklow, Ireland) and delivered by intracerebroventricular (i.c.v.) microinjection in 2 µl volume unless otherwise specified: Adenosine 5'-triphosphate (ATP) at 100 µM, Uridine-5'-triphosphate (UTP) at 100 µM, Uridine-5'-diphosphate (UDP) at 100 µM, 2-chloro-N6-cyclopentyladenosine (CCPA) 300 nM, Pyridoxal-phosphate-6-azophenyl-2,4-disulfonate (PPADS) at 50 µM, α,β- methylene- adenosine-5-triphosphate (α,β-meATP) at 0.1 nmol, 3-O-(4-benzoyl)benzyl-ATP (Bz-ATP) at 300 µM, Brillant Blue G (BBG) at 30 nM.
Lorazepam (Ativan®, Wyeth, Taplow, U.K.) (6 mg/kg) was administered intraperitoneally (i.p.) at 40 or 60 min after KA.
Next, a model of focal-onset SE was used to evaluate the contributions of ATP-gated receptors in vivo. Mice received intra-amygdala microinjection of KA to induce SE (Fig. 2C). […] The electroencephalogram (EEG) was recorded by using cranial electrodes (lower part of Fig. 2C). Seizures were curtailed after 40 min by the injection of lorazepam to minimize morbidity and mortality.

microglia = assay: Iba-1 immunostaining, activated microglia counts in CA3 after SE; assay type: in vivo, mice; conditions: CA3, 24 h after SE; vs vehicle
Protocol: as §1, with “Brains were either flash-frozen whole in 2-methylbutane at 30°C or perfused with 4% PFA for histopathology, or dissected on ice to obtain whole hippocampus or microdissected to obtain the different hippocampal subfields (CA1, DG and CA3).” left out

| SMILES | inhibition of some P2Y receptors (P2Y receptors) | Counts of surviving CA3 neurons (NeuN) (Adult male C57BL/6 mice [1]) | FJB-positive cells within the CA3 subfield (neuronal death) (Adult male C57BL/6 mice [1]) | seizure time during SE (duration of HAHFDs) (Adult male C57BL/6 mice [2]) | Reactive microglia (Iba-1) (microglia) | FJB-positive cells in CA3 (Adult male C57BL/6 mice [1]; injected 15 min after KA) | NeuN-positive cells in CA3 (Adult male C57BL/6 mice [1]; injected 15 min after KA) |
| --- | --- | --- | --- | --- | --- | --- | --- |
| CCOc1ccc(Nc2ccc(C(=C3C=CC(=[N+](CC)Cc4cccc(S(=O)(=O)[O-])c4)C=C3C)c3ccc(N(CC)Cc4cccc(S(=O)(=O)O)c4)cc3C)cc2)cc1 [BBG, Brilliant Blue G] | low micromolar range | significantly higher | significantly less damage | significantly reduced seizure time | significantly reduced |  |  |
| Cl.Clc1cccc(-c2nnnn2Cc2cccnc2)c1Cl [A-438079, 3-[[5-(2,3-Dichlorophenyl)-1H-tetrazol-1-yl]methyl]pyridine hydrochloride] |  | significantly higher | protect the hippocampus against SE-induced neuronal death | significantly reduced seizure time | significantly reduced | significantly fewer | significantly more |
